SMILES strings stand for the structures.

Data set [1] in a line: Chemical stability test of solubilized docetaxel by HPLC. The conditions noted are these: vial of Example 3, solubilizing composition with 15% DMA, 25° C., 60% relative humidity. In kind it is physicochemical. The method, then:
The vial of Example 3 containing a solubilizing composition of 15% DMA was subjected to a chemical stability test described as follows:
Immediately after solubilizing docetaxel and at periods of 2, 4, 6 and 8 hours starting from that moment, a sample is taken from the vial using a disposable syringe (1 ml, Darling) with a disposable hypodermic needle (50×8-21Gx2, Neojet). The volume of the sample was 0.5 ml and each sample was weighed and diluted up to a final volume of 10 ml with the mobile phase to be used in HPLC. Reconstituted material remained in a chamber at 25° C. and 60% room relative humidity during the test time.
Mobile phase: Filtered and deaerated mixture of acetonitrile, Methanol, water (26:32:42 v:v:v). The column used was Beckman stainless steel (Ultrasphere ODS of 4.6 mm×25 cm, 5 μm, part N° 235329). The guard column used was Beckman (Ultrasphere ODS of 4.6 mm×4.5 cm, 5 μm, part N° 243533). The detector used was UV type, Waters 2487 dual and the measure was done at wave length 232 nm. The volume injected was 20 μl, using a Waters 717 plus autosampler, and samples were maintained in the autosampler at 4° C. after preparation until the moment of being injected. Retention time for docetaxel is approximately 25 min and run time is 90 min. Flow rate remained 1.0 ml/min using a Waters 1525 binary pump for HPLC. The software used was Breeze version 3.30. The column temperature was 40° C. A standard for the assessment and determination of related substances was prepared, weighing exactly 20 mg of standard docetaxel in a volumetric flask of 50 ml; it was dissolved with 5 ml ethanol and was diluted up to final volume with mobile phase. A solution of impurity 10-deacethilbaccatine III was prepared in order to detect and quantify it in a chromatogram, weighing 5 mg of 10-deacethilbaccatine III, dissolving with 1 ml ethanol and diluting up to final volume, 10 ml, with mobile phase in a volumetric flask. In the same way, a solution of impurity 7-epi-docetaxel was prepared, weighing 10 mg of docetaxel, 10 ml of NaOH 0.005 N were added. It was left to stand for 2 hours; 2.5 ml of ethanol were added and it was diluted to final volume, 25 ml with mobile phase.

The nature of data set [2]: Laboratory solubility tests of docetaxel API versus lyophilized solid composition in tensoactives. In kind it is physicochemical. The conditions noted are these: for solubility in a tensoactive aqueous solution: direct dissolution.

For the compound `CC(=O)O[C@@]12CO[C@@H]1C[C@H](O)[C@@]1(C)C(=O)[C@H](O)C3=C(C)[C@@H](OC(=O)[C@H](O)[C@@H](NC(=O)OC(C)(C)C)c4ccccc4)C[C@@](O)([C@@H](OC(=O)c4ccccc4)[C@H]21)C3(C)C` [Docetaxel], the “Docetaxel concentration (percentage of area ratio)” value is recorded as 99.61 percentage of area ratio in data set [1] (time 0 hours); 99.59 percentage of area ratio in data set [1] (time 2 hours); 99.57 percentage of area ratio in data set [1] (time 4 hours); 99.57 percentage of area ratio in data set [1] (time 6 hours); 99.54 percentage of area ratio in data set [1] (time 8 hours).

For the compound `CC(=O)O[C@@]12CO[C@@H]1C[C@H](O)[C@@]1(C)C(=O)[C@H](O)C3=C(C)[C@@H](OC(=O)[C@H](O)[C@@H](NC(=O)OC(C)(C)C)c4ccccc4)C[C@@](O)([C@@H](OC(=O)c4ccccc4)[C@H]21)C3(C)C` [anhydrous docetaxel], in data set [2], the “solubility in pure polysorbate 80” value was “very difficultly” and the “solubility in a tensoactive aqueous solution” value is reported as “cannot be dissolved directly”.

For `CC(=O)O[C@@]12CO[C@@H]1C[C@H](O)[C@@]1(C)C(=O)[C@H](O)C3=C(C)[C@@H](OC(=O)[C@H](O)[C@@H](NC(=O)OC(C)(C)C)c4ccccc4)C[C@@](O)([C@@H](OC(=O)c4ccccc4)[C@H]21)C3(C)C.O.O.O` [trihydrate docetaxel], in data set [2], the “solubility in pure polysorbate 80” value is reported as “very difficultly” and the “solubility in a tensoactive aqueous solution” value is “cannot be dissolved directly”.

The values above are taken from patent publication US20100255104A1, “PHARMACEUTICAL FORMULATION OF TAXANE” (ERIOCHEM S.A., priority 2007, published 2010).
